Laboratory results: US10227344B2, “CK2 inhibitors, compositions and methods thereof” (Polaris Pharmaceuticals, Inc., priority 2016, dated 2019)

Legend:
Type in all cases: cell-based
PC3 = assay: Cancer cell panel, cell viability (resazurin): Prostate, PC3; settings: 72 hours, labelled drug combined with Example 3
SKOV-3 = assay: Cancer cell panel, cell viability (resazurin): Ovarian, SKOV-3; settings: SKOV-3 (Ovarian), 72 hours; labelled drug combined with Example 3
Method: (§1) Cells were plated in 96-well plates and treated for 72 hours with a serially diluted CK2 inhibitor or anti-cancer drug or their combination. The suspension cell lines were treated right after plating, while the adherent cells were allowed to attach overnight prior to the start of the treatment.
(§2) Cell viability was determined by adding resazurin to cell cultures and measuring fluorescence with a plate reader. Relative cell viability was calculated by dividing the cell viability signal from a test sample by that of a non-treated control. […] Bliss Independence and Highest Single Agent models were used to determine if there is synergy, additivity or antagonism between the CK2 inhibitor and an anti-cancer drug.

OVCAR-3 = assay: Cancer cell panel, cell viability (resazurin): Ovarian, OVCAR-3; settings: OVCAR-3 (Ovarian), 72 hours; labelled drug combined with Example 3
A2780 = assay: Cancer cell panel, cell viability (resazurin): Ovarian, A2780; settings: 72 hours, labelled drug combined with Example 3
Caov-3 = assay: Cancer cell panel, cell viability (resazurin): Ovarian, Caov-3; settings: Caov-3 (Ovarian), 72 hours; labelled drug combined with Example 3
Mia-Paca-2 = assay: Cancer cell panel, cell viability (resazurin): Pancreatic, Mia-Paca-2; settings: Mia-Paca-2 (Pancreatic), 72 hours; labelled drug combined with Example 3
Method: as §1, §2

Panc-1 = assay: Cancer cell panel, cell viability (resazurin): Pancreatic, Panc-1; settings: Panc-1 (Pancreatic), 72 hours; labelled drug combined with Example 3
BxPC3 = assay: Cancer cell panel, cell viability (resazurin): Pancreatic, BxPC3; settings: 72 hours, labelled drug combined with Example 3
Method: as §1, §2

HCT116 = assay: Cancer cell panel, cell viability (resazurin): Colon, HCT116; settings: 72 hours, labelled drug combined with Example 3
Method: as §1, §2

Colo205 = assay: Cancer cell panel, cell viability (resazurin): Colon, Colo205; settings: 72 hours, labelled drug combined with Example 3
LoVo = assay: Cancer cell panel, cell viability (resazurin): Colon, LoVo; settings: 72 hours, labelled drug combined with Example 3
DLD-1 = assay: Cancer cell panel, cell viability (resazurin): Colon, DLD-1; settings: DLD-1 (Colon), 72 hours; labelled drug combined with Example 3
H1299 = assay: Cancer cell panel, cell viability (resazurin): NSCLC, H1299; settings: 72 hours, labelled drug combined with Example 3
H460 = assay: Cancer cell panel, cell viability (resazurin): NSCLC, H460; settings: 72 hours, labelled drug combined with Example 3
Method: as §1, §2

H1975 = assay: Cancer cell panel, cell viability (resazurin): NSCLC, H1975; settings: 72 hours, labelled drug combined with Example 3
H23 = assay: Cancer cell panel, cell viability (resazurin): NSCLC, H23; settings: 72 hours, labelled drug combined with Example 3
H2122 = assay: Cancer cell panel, cell viability (resazurin): NSCLC, H2122; settings: 72 hours, labelled drug combined with Example 3
Method: as §1, §2

SkBr-3 = assay: Cancer cell panel, cell viability (resazurin): Breast, SkBr-3; settings: SkBr-3 (Breast), 72 hours; labelled drug combined with Example 3
MDA-MB-453 = assay: Cancer cell panel, cell viability (resazurin): Breast, MDA-MB-453; settings: MDA-MB-453 (Breast), 72 hours; labelled drug combined with Example 3
Method: as §1, §2

MDA-MB-231 = assay: Cancer cell panel, cell viability (resazurin): Breast, MDA-MB-231; settings: MDA-MB-231 (Breast), 72 hours; labelled drug combined with Example 3
MDA-MB-157 = assay: Cancer cell panel, cell viability (resazurin): Breast, MDA-MB-157; settings: MDA-MB-157 (Breast), 72 hours; labelled drug combined with Example 3
Method: as §1, §2

BT-20 = assay: Cancer cell panel, cell viability (resazurin): Breast, BT-20; settings: BT-20 (Breast), 72 hours; labelled drug combined with Example 3
BT-474 = assay: Cancer cell panel, cell viability (resazurin): Breast, BT-474; settings: BT-474 (Breast), 72 hours; labelled drug combined with Example 3
Method: as §1, §2

ZR-75-1 = assay: Cancer cell panel, cell viability (resazurin): Breast, ZR-75-1; settings: ZR-75-1 (Breast), 72 hours; labelled drug combined with Example 3
T47D = assay: Cancer cell panel, cell viability (resazurin): Breast, T47D; settings: 72 hours, labelled drug combined with Example 3
ACHN = assay: Cancer cell panel, cell viability (resazurin): Renal, ACHN; settings: 72 hours, labelled drug combined with Example 3
Caki-1 = assay: Cancer cell panel, cell viability (resazurin): Renal, Caki-1; settings: Caki-1 (Renal), 72 hours; labelled drug combined with Example 3
Method: as §1, §2

A375 = assay: Cancer cell panel, cell viability (resazurin): Melanoma, A375; settings: 72 hours, labelled drug combined with Example 3
SK-MEL-3 = assay: Cancer cell panel, cell viability (resazurin): Melanoma, SK-MEL-3; settings: SK-MEL-3 (Melanoma), 72 hours; labelled drug combined with Example 3
Method: as §1, §2

SK-MEL-24 = assay: Cancer cell panel, cell viability (resazurin): Melanoma, SK-MEL-24; settings: SK-MEL-24 (Melanoma), 72 hours; labelled drug combined with Example 3
WM-115 = assay: Cancer cell panel, cell viability (resazurin): Melanoma, WM-115; settings: WM-115 (Melanoma), 72 hours; labelled drug combined with Example 3
RPMI8226 = assay: Cancer cell panel, cell viability (resazurin): multiple myeloma, RPMI8226; settings: 72 hours, labelled drug combined with Example 3
Raji = assay: Cancer cell panel, cell viability (resazurin): Burkitt's Lymphoma, Raji; settings: 72 hours, labelled drug combined with Example 3
Daudi = assay: Cancer cell panel, cell viability (resazurin): Burkitt's Lymphoma, Daudi; settings: 72 hours, labelled drug combined with Example 3
K562 = assay: Cancer cell panel, cell viability (resazurin): Leukemia, K562; settings: 72 hours, labelled drug combined with Example 3
HL60 = assay: Cancer cell panel, cell viability (resazurin): Leukemia, HL60; settings: 72 hours, labelled drug combined with Example 3
EOL-1 = assay: Cancer cell panel, cell viability (resazurin): Leukemia, EOL-1; settings: EOL-1 (Leukemia), 72 hours; labelled drug combined with Example 3
MOLT4 = assay: Cancer cell panel, cell viability (resazurin): Leukemia, MOLT4; settings: 72 hours, labelled drug combined with Example 3

Structure (SMILES): COc1cccc2c1C(=O)c1c(O)c3c(c(O)c1C2=O)C[C@@](O)(C(=O)CO)C[C@@H]3O[C@H]1C[C@H](N)[C@H](O)[C@H](C)O1 [Doxorubicin, doxorubicin]
- synergy, additivity or antagonism of the combination of Example 3 with the anti-cancer drug (PC3): + (Additive relative to each agent alone (CI = 0.9-1 by Bliss Independence Model and <0.9 by Highest Single Agent Model))
- synergy, additivity or antagonism of the combination of Example 3 with the anti-cancer drug (SKOV-3): + (Additive relative to each agent alone (CI = 0.9-1 by Bliss Independence Model and <0.9 by Highest Single Agent Model))
- synergy, additivity or antagonism of the combination of Example 3 with the anti-cancer drug (OVCAR-3): + + (Slight synergy relative to each agent alone (CI = 0.75-0.9 by Bliss Independence Model))
- synergy, additivity or antagonism of the combination of Example 3 with the anti-cancer drug (A2780): + (Additive relative to each agent alone (CI = 0.9-1 by Bliss Independence Model and <0.9 by Highest Single Agent Model))
- synergy, additivity or antagonism of the combination of Example 3 with the anti-cancer drug (Caov-3): + (Additive relative to each agent alone (CI = 0.9-1 by Bliss Independence Model and <0.9 by Highest Single Agent Model))
- synergy, additivity or antagonism of the combination of Example 3 with the anti-cancer drug (Mia-Paca-2): + (Additive relative to each agent alone (CI = 0.9-1 by Bliss Independence Model and <0.9 by Highest Single Agent Model))
- synergy, additivity or antagonism of the combination of Example 3 with the anti-cancer drug (Panc-1): + + (Slight synergy relative to each agent alone (CI = 0.75-0.9 by Bliss Independence Model))
- synergy, additivity or antagonism of the combination of Example 3 with the anti-cancer drug (BxPC3): + + (Slight synergy relative to each agent alone (CI = 0.75-0.9 by Bliss Independence Model))
- synergy, additivity or antagonism of the combination of Example 3 with the anti-cancer drug (HCT116): + + (Slight synergy relative to each agent alone (CI = 0.75-0.9 by Bliss Independence Model))
- synergy, additivity or antagonism of the combination of Example 3 with the anti-cancer drug (Colo205): + + (Slight synergy relative to each agent alone (CI = 0.75-0.9 by Bliss Independence Model))
- synergy, additivity or antagonism of the combination of Example 3 with the anti-cancer drug (LoVo): + (Additive relative to each agent alone (CI = 0.9-1 by Bliss Independence Model and <0.9 by Highest Single Agent Model))
- synergy, additivity or antagonism of the combination of Example 3 with the anti-cancer drug (DLD-1): + + (Slight synergy relative to each agent alone (CI = 0.75-0.9 by Bliss Independence Model))
- synergy, additivity or antagonism of the combination of Example 3 with the anti-cancer drug (H1299): + (Additive relative to each agent alone (CI = 0.9-1 by Bliss Independence Model and <0.9 by Highest Single Agent Model))
- synergy, additivity or antagonism of the combination of Example 3 with the anti-cancer drug (H460): + + (Slight synergy relative to each agent alone (CI = 0.75-0.9 by Bliss Independence Model))
- synergy, additivity or antagonism of the combination of Example 3 with the anti-cancer drug (H1975): + (Additive relative to each agent alone (CI = 0.9-1 by Bliss Independence Model and <0.9 by Highest Single Agent Model))
- synergy, additivity or antagonism of the combination of Example 3 with the anti-cancer drug (H23): + + (Slight synergy relative to each agent alone (CI = 0.75-0.9 by Bliss Independence Model))
- synergy, additivity or antagonism of the combination of Example 3 with the anti-cancer drug (H2122): + + (Slight synergy relative to each agent alone (CI = 0.75-0.9 by Bliss Independence Model))
- synergy, additivity or antagonism of the combination of Example 3 with the anti-cancer drug (SkBr-3): + (Additive relative to each agent alone (CI = 0.9-1 by Bliss Independence Model and <0.9 by Highest Single Agent Model))
- synergy, additivity or antagonism of the combination of Example 3 with the anti-cancer drug (MDA-MB-453): + + + (Synergy relative to each agent alone (CI = 0.4-0.74 by Bliss Independence Model))
- synergy, additivity or antagonism of the combination of Example 3 with the anti-cancer drug (MDA-MB-231): + (Additive relative to each agent alone (CI = 0.9-1 by Bliss Independence Model and <0.9 by Highest Single Agent Model))
- synergy, additivity or antagonism of the combination of Example 3 with the anti-cancer drug (MDA-MB-157): + + + (Synergy relative to each agent alone (CI = 0.4-0.74 by Bliss Independence Model))
- synergy, additivity or antagonism of the combination of Example 3 with the anti-cancer drug (BT-20): + + (Slight synergy relative to each agent alone (CI = 0.75-0.9 by Bliss Independence Model))
- synergy, additivity or antagonism of the combination of Example 3 with the anti-cancer drug (BT-474): + + (Slight synergy relative to each agent alone (CI = 0.75-0.9 by Bliss Independence Model))
- synergy, additivity or antagonism of the combination of Example 3 with the anti-cancer drug (ZR-75-1): + + (Slight synergy relative to each agent alone (CI = 0.75-0.9 by Bliss Independence Model))
- synergy, additivity or antagonism of the combination of Example 3 with the anti-cancer drug (T47D): + (Additive relative to each agent alone (CI = 0.9-1 by Bliss Independence Model and <0.9 by Highest Single Agent Model))
- synergy, additivity or antagonism of the combination of Example 3 with the anti-cancer drug (ACHN): + (Additive relative to each agent alone (CI = 0.9-1 by Bliss Independence Model and <0.9 by Highest Single Agent Model))
- synergy, additivity or antagonism of the combination of Example 3 with the anti-cancer drug (Caki-1): + (Additive relative to each agent alone (CI = 0.9-1 by Bliss Independence Model and <0.9 by Highest Single Agent Model))
- synergy, additivity or antagonism of the combination of Example 3 with the anti-cancer drug (A375): + (Additive relative to each agent alone (CI = 0.9-1 by Bliss Independence Model and <0.9 by Highest Single Agent Model))
- synergy, additivity or antagonism of the combination of Example 3 with the anti-cancer drug (SK-MEL-3): + + (Slight synergy relative to each agent alone (CI = 0.75-0.9 by Bliss Independence Model))
- synergy, additivity or antagonism of the combination of Example 3 with the anti-cancer drug (SK-MEL-24): + (Additive relative to each agent alone (CI = 0.9-1 by Bliss Independence Model and <0.9 by Highest Single Agent Model))
- synergy, additivity or antagonism of the combination of Example 3 with the anti-cancer drug (WM-115): + + + (Synergy relative to each agent alone (CI = 0.4-0.74 by Bliss Independence Model))
- synergy, additivity or antagonism of the combination of Example 3 with the anti-cancer drug (RPMI8226): + + + (Synergy relative to each agent alone (CI = 0.4-0.74 by Bliss Independence Model))
- synergy, additivity or antagonism of the combination of Example 3 with the anti-cancer drug (Raji): + + (Slight synergy relative to each agent alone (CI = 0.75-0.9 by Bliss Independence Model))
- synergy, additivity or antagonism of the combination of Example 3 with the anti-cancer drug (Daudi): + (Additive relative to each agent alone (CI = 0.9-1 by Bliss Independence Model and <0.9 by Highest Single Agent Model))
- synergy, additivity or antagonism of the combination of Example 3 with the anti-cancer drug (K562): + (Additive relative to each agent alone (CI = 0.9-1 by Bliss Independence Model and <0.9 by Highest Single Agent Model))
- synergy, additivity or antagonism of the combination of Example 3 with the anti-cancer drug (HL60): + (Additive relative to each agent alone (CI = 0.9-1 by Bliss Independence Model and <0.9 by Highest Single Agent Model))
- synergy, additivity or antagonism of the combination of Example 3 with the anti-cancer drug (EOL-1): + + (Slight synergy relative to each agent alone (CI = 0.75-0.9 by Bliss Independence Model))
- synergy, additivity or antagonism of the combination of Example 3 with the anti-cancer drug (MOLT4): + + + (Synergy relative to each agent alone (CI = 0.4-0.74 by Bliss Independence Model))
